In ChEMBL document CHEMBL5678818, “Discovery of potent SOS1 inhibitors that block RAS activation via disruption of the RAS-SOS1 interaction” (Proc Natl Acad Sci U S A, 2019):

Assays:
Homo sapiens = organism: Homo sapiens; test: Inhibition of N-terminal GST-tagged recombinant human SOS1 H905M mutant (564 to 1049 residues) expressed in Escherichia coli assessed as reduction in KRAS G12C mutant activation at 10 uM by HTRF analysis relative to control
[1] = biological target: T1, Cytoplasmic tyrosine-protein kinase BMX (Homo sapiens) (UniProt P51813); test: Inhibition of BMX (unknown origin) assessed as residual activity at 100 nM by KINOMEscan analysis relative to control
T1 sequence (whole entry): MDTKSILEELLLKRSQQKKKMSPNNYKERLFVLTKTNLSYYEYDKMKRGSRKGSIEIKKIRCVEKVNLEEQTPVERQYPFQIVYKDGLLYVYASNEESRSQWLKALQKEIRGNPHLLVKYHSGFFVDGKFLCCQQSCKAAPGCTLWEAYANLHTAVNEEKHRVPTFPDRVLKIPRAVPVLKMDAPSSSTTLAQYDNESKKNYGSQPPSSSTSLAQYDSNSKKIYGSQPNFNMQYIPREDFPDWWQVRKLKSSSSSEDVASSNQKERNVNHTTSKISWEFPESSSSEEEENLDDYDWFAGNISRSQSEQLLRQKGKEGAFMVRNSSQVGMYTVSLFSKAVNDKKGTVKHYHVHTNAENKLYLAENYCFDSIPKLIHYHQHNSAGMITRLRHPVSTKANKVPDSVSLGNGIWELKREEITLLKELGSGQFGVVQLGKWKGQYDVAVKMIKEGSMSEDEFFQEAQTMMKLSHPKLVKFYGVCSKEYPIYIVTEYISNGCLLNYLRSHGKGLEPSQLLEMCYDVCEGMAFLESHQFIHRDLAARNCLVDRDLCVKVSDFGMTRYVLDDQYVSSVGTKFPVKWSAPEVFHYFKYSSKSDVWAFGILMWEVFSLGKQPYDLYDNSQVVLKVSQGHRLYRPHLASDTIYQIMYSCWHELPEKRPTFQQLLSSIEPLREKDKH

[2] = biological target: Cyclin-dependent kinase 5 (Homo sapiens) (UniProt Q00535); test: Inhibition of CDK5 (unknown origin) assessed as residual activity at 100 nM by KINOMEscan analysis relative to control
Chain of Cyclin-dependent kinase 5 (Homo sapiens) (Q00535 whole entry, looked up): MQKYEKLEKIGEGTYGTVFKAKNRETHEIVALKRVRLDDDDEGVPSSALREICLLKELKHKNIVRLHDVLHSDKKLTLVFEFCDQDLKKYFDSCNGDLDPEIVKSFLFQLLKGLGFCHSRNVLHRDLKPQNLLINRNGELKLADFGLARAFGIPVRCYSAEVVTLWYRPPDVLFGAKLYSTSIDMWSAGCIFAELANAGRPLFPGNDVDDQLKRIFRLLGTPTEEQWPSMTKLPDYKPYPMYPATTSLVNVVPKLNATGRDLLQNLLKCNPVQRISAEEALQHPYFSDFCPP

[3] = biological target: Casein kinase II subunit alpha' (Homo sapiens) (UniProt P19784); test: Inhibition of CSNK2A2 (unknown origin) assessed as residual activity at 100 nM by KINOMEscan analysis relative to control
Chain of Casein kinase II subunit alpha' (Homo sapiens) (P19784 whole entry, looked up): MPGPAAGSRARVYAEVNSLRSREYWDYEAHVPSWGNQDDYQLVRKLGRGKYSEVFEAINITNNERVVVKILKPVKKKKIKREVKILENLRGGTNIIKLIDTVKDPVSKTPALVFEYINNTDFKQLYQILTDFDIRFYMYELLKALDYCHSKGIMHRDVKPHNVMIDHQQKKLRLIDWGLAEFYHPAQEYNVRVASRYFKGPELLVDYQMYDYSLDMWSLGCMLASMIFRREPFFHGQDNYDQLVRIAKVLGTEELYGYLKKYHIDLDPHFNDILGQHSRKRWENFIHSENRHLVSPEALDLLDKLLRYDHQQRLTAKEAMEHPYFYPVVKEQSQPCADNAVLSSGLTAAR

[4] = biological target: T2, Serine/threonine-protein kinase DCLK2 (Homo sapiens) (UniProt Q8N568); test: Inhibition of DCAMKL2 (unknown origin) assessed as residual activity at 100 nM by KINOMEscan analysis relative to control
T2 sequence (whole entry): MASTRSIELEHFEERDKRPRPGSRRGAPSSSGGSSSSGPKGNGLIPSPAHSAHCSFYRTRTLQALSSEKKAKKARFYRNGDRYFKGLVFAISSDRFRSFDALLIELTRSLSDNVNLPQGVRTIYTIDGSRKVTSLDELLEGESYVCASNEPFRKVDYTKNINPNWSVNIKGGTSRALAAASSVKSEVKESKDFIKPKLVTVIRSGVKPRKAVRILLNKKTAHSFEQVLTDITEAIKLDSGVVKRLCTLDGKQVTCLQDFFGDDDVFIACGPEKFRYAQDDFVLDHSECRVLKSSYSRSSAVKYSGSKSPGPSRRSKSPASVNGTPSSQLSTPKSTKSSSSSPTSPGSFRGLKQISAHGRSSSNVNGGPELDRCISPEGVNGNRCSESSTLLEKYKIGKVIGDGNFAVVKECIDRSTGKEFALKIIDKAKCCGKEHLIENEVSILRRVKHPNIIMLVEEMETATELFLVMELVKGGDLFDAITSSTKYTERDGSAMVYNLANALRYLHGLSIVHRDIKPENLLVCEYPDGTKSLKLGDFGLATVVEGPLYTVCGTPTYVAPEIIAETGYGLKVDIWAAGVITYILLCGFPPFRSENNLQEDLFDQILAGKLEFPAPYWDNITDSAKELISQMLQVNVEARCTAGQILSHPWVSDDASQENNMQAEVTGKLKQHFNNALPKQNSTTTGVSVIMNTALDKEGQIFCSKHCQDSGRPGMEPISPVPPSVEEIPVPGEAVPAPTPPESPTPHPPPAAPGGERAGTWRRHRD

[5] = biological target: T3, Ephrin type-A receptor 3 (Homo sapiens) (UniProt P29320); test: Inhibition of EPHA3 (unknown origin) assessed as residual activity at 100 nM by KINOMEscan analysis relative to control
T3 sequence (whole entry): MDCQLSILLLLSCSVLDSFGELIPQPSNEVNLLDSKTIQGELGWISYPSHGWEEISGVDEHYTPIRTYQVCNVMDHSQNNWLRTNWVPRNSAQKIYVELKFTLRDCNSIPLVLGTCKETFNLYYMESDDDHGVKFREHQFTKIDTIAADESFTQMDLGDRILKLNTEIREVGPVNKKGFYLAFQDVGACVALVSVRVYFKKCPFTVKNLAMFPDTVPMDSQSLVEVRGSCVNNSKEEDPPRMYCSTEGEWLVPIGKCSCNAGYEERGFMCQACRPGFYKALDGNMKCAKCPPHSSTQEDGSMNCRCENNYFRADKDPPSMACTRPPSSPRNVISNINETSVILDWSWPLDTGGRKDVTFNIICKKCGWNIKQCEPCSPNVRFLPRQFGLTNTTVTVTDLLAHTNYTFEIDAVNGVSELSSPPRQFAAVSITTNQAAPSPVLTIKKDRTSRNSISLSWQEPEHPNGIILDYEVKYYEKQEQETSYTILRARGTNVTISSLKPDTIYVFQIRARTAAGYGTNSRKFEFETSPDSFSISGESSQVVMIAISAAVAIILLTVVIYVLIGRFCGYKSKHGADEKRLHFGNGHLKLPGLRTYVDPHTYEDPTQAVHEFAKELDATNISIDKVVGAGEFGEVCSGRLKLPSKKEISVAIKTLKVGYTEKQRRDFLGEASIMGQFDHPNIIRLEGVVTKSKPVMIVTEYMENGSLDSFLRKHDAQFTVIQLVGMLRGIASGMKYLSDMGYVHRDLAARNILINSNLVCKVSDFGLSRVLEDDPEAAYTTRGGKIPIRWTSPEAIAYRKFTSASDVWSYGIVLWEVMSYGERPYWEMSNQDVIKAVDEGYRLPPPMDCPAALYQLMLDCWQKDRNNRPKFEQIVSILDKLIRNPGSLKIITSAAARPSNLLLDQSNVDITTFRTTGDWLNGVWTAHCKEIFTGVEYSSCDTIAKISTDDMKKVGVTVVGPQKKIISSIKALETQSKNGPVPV

[6] = tested on: Receptor-type tyrosine-protein kinase FLT3 (Homo sapiens), P36888 [D835H]; test: Inhibition of FLT3 D835H mutant (unknown origin) assessed as residual activity at 100 nM by KINOMEscan analysis relative to control

SMILES: COc1cc2ncnc(N[C@H](C)c3cccc4ccccc34)c2cc1OC
- inhibition (Homo sapiens): 39%
- Activity [1]: 79%
- Activity [2]: 83%
- Activity [3]: 87%
- Activity [4]: 82%
- Activity [5]: 81%
- Activity [6]: 92%
